In one data set the target is T1, human ERβ (Homo sapiens, UniProt Q92731).
T1 construct: made in house; host or cells: E. coli (crude lysate)
Nature of the data set: Competition with [3H]-17β-estradiol for binding to ERβ ligand binding domain. Conditions: crude E. coli lysate expressing ER ligand binding domains (D,E,&F); 2 nM [3H]-17β-estradiol; 5-15 hours at room temperature. As to the method: (§1) This test procedure provides the methodology for one to determine whether a particular compound binds to the estrogen receptor (and is therefore “estrogenic”) and whether there is selectivity for ERα or ERβ. […] The procedure used is briefly described below. A crude lysate of E. coli expressing the estrogen receptor ligand binding domains (D,E, & F) of human ERα or ERβ was prepared. Both receptors and compounds were diluted in 1×Dulbecco's PBS (DPBS) supplemented with 1 mM EDTA. […] After between 5 and 15 hours at room temperature, the plates were washed with DPBS/1 mM EDTA and bound radioactivity determined by liquid scintillation counting.

The next data set concerns the target T2, human ERα (Homo sapiens, UniProt P03372).
T2 construct: made in house; host or cells: E. coli (crude lysate)
T2 sequence (P03372 311-547 limits assumed): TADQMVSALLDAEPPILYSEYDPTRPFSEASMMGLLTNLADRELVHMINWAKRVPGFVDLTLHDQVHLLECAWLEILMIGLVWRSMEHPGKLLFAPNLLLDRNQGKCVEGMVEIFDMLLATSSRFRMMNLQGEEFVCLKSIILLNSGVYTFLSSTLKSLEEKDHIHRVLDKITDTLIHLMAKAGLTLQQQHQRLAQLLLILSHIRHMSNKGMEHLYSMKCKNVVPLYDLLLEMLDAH
Nature of the data set: Competition with [3H]-17β-estradiol for binding to ERα ligand binding domain. The settings on record: crude E. coli lysate expressing ER ligand binding domains (D,E,&F); 2 nM [3H]-17β-estradiol; 5-15 hours at room temperature. As to the method:
as §1

Some results are limits rather than exact numbers.

T1 sequence (Q92731 264-498 limits assumed): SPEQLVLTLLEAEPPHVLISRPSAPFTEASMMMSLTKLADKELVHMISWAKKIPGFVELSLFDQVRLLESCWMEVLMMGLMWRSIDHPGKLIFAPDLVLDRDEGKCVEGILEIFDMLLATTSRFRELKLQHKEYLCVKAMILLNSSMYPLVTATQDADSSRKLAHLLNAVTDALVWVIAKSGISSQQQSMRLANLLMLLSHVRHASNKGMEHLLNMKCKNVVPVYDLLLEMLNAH

Turning to `O=c1c2ccc(O)cc2oc2oc3cc(O)ccc3c12` [2,8-Dihydroxy-10,11-dioxa-benzo[b]fluoren-5-one], the melting point is above 300 °C. The compound also showed an IC50 at human ERβ of 28 nM. Besides, at human ERα, the IC50 is 482 nM.
Consider `O=c1c2c(O)cc(O)cc2oc2oc3cc(O)ccc3c12` [2,6,8-Trihydroxy-10,11-dioxa-benzo[b]fluoren-5-one], for which the IC50 on human ERβ was 2 nM.
On to `COc1cc(O)c2c(=O)c3c(oc2c1)oc1cc(O)ccc13` [2.6-Dihvdroxy-8-methoxy-10,11-dioxa-benzo[b]fluoren-5-one], for which, at human ERα, the IC50 amounted to 2730 nM.

As a reminder, the IC50 is the concentration that gives 50% inhibition. As usually defined, the melting point is the temperature, or range, at which the solid turns liquid.

Values taken from US6589980B2, “Substituted 10,11-benzo[b]fluoren-10-ones as estrogenic agents” (Wyeth, priority 2001, dated 2003).
